ChEMBL document CHEMBL1157013, “Novel phospholipid analogues of pan-PPAR activator tetradecylthioacetic acid are more PPAR alpha selective” (Bioorg Med Chem Lett, 2010)
Calls of active or inactive are those of the source. The calls are words filed in the database; no cut-off is given here.

Assays:
Format in all cases: cell-based
[1] = biological target: T1, Peroxisome proliferator-activated receptor alpha (Homo sapiens) (UniProt Q07869); experiment: Activation of PPARalpha expressed in human MCF7 cells at 30 uM by luciferase reporter gene assay
T1 sequence (whole entry): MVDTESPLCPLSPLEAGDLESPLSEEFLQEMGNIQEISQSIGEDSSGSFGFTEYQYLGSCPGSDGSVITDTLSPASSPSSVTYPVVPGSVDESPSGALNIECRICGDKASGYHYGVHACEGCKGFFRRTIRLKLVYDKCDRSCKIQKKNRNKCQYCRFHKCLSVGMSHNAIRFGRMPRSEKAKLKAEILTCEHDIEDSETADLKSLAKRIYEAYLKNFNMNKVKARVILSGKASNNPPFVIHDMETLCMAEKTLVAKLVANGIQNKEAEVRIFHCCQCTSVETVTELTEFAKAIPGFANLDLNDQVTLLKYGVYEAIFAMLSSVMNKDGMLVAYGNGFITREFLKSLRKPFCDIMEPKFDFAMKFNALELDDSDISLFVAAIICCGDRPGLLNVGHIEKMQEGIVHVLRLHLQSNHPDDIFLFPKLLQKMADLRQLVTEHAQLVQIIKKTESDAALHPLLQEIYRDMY

[2] = biological target: T2, Peroxisome proliferator-activated receptor gamma (Homo sapiens) (UniProt P37231); experiment: Activation of PPARgamma expressed in human MCF7 cells at 30 uM by luciferase reporter gene assay
T2 sequence (whole entry): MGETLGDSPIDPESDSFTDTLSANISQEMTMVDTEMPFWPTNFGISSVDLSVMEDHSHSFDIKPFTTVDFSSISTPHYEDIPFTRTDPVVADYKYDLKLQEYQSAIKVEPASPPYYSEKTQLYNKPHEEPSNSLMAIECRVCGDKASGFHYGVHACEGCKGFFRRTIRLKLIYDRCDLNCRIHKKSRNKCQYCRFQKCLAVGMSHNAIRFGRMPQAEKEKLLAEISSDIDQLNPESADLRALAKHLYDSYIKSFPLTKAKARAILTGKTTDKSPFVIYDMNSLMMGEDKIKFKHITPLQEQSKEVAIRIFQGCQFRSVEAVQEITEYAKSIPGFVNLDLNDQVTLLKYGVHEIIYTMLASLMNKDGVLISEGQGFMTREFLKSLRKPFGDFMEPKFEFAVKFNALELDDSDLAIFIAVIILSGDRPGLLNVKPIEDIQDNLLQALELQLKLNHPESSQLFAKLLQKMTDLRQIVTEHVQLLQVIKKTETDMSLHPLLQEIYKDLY

[3] = biological target: T3, Peroxisome proliferator-activated receptor delta (Homo sapiens) (UniProt Q03181); experiment: Activation of PPARdelta expressed in human MCF7 cells at 30 uM by luciferase reporter gene assay
T3 sequence (whole entry): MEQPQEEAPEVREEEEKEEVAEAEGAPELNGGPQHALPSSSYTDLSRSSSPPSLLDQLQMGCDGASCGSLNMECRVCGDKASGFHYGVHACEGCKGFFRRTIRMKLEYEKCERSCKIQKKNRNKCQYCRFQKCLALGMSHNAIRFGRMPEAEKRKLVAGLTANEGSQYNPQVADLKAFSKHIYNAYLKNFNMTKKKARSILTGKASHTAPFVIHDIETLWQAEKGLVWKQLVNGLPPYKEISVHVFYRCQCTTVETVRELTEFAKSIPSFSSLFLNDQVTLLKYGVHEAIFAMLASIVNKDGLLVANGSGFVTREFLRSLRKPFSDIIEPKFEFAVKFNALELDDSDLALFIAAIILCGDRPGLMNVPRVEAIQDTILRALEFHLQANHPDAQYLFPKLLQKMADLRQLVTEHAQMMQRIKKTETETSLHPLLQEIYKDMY

[4] = biological target: T3, Peroxisome proliferator-activated receptor delta (Homo sapiens); experiment: Activation of PPARdelta expressed in human MCF7 cells at 10 uM by luciferase reporter gene assay
[5] = biological target: T2, Peroxisome proliferator-activated receptor gamma (Homo sapiens); experiment: Activation of PPARgamma expressed in human MCF7 cells at 10 uM by luciferase reporter gene assay
[6] = biological target: T1, Peroxisome proliferator-activated receptor alpha (Homo sapiens); experiment: Activation of PPARalpha expressed in human MCF7 cells at 10 uM by luciferase reporter gene assay

Row | Activity [1] | Activity [2] | Activity [3] | Activity [4] | Activity [5] | Activity [6] | SMILES
1 | Active | Active | Active | – | – | – | CCCCCCCCCCCCCCSCC(=O)O
2 | Active | Active | Active | Active | Active | Active | CCCCCCCCCCCCCCSCC(=O)OC[C@@H](O)COP(=O)([O-])OCC[N+](C)(C)C
3 | Active | Active | Active | Active | Active | Active | CCCCCCCCCCCCCCSCC(=O)OC[C@H](COP(=O)(O)OCC(O)CO)OC(=O)CSCCCCCCCCCCCCCC (stereo not given in full)
